Marks after values point to notes of the source that are not given here.
Experiments:
Assay type in all cases: in vivo
Botrytis cinerea = assay: Test C: tomato Botrytis on tomato seedlings, sprayed the day before inoculation, visual disease rating; details: 100 = 100% disease control; for pest or weed control at 200 ppm: Botrytis cinerea, 120 h
Excerpt: General protocol for preparing test suspensions for Tests A-J: The test compounds were first dissolved in acetone in an amount equal to 3% of the final volume and then suspended at the desired concentration (in ppm) in acetone and purified water (50/50 mix) containing 250 ppm of the surfactant Trem® 014 (polyhydric alcohol esters). The resulting test suspensions were then used in tests A-J. Spraying a 200 ppm test suspension to the point of run-off on the test plants was the equivalent of a rate of 500 g/ha. […] The test suspension was sprayed to the point of run-off on tomato seedlings. […] A dash (-) indicates no test results. All results are for 200 ppm except where followed by “*”, which indicates 40 ppm.

[1] = test system: Puccinia recondita f. sp. tritici; assay: Test I: wheat leaf rust on wheat seedlings, sprayed the day before inoculation, visual disease rating; details: 100 = 100% disease control; for pest or weed control at 200 ppm: Puccinia recondita, 168 h
Excerpt: (§1) General protocol for preparing test suspensions for Tests A-J: The test compounds were first dissolved in acetone in an amount equal to 3% of the final volume and then suspended at the desired concentration (in ppm) in acetone and purified water (50/50 mix) containing 250 ppm of the surfactant Trem® 014 (polyhydric alcohol esters). The resulting test suspensions were then used in tests A-J. Spraying a 200 ppm test suspension to the point of run-off on the test plants was the equivalent of a rate of 500 g/ha. […] The test suspension was sprayed to the point of run-off on wheat seedlings. […] A dash (-) indicates no test results. All results are for 200 ppm except where followed by “*”, which indicates 40 ppm.

[2] = test system: Erysiphe graminis f. sp. tritici; assay: Test J: wheat powdery mildew on wheat seedlings, sprayed the day before inoculation, visual disease rating; details: 100 = 100% disease control; for pest or weed control at 200 ppm: Blumeria graminis, 168 h
Excerpt: as §1

Alternaria solani = assay: Test D: tomato early blight, sprayed the day before inoculation, visual disease rating; details: 100 = 100% disease control; for pest or weed control at 200 ppm: Alternaria solani, 168 h
Excerpt: as §1

Septoria tritici = assay: Test G: wheat leaf blotch on wheat seedlings, sprayed the day before inoculation, visual disease rating; details: 100 = 100% disease control; for pest or weed control at 200 ppm: Zymoseptoria tritici, 504 h
Excerpt: General protocol for preparing test suspensions for Tests A-J: The test compounds were first dissolved in acetone in an amount equal to 3% of the final volume and then suspended at the desired concentration (in ppm) in acetone and purified water (50/50 mix) containing 250 ppm of the surfactant Trem® 014 (polyhydric alcohol esters). The resulting test suspensions were then used in tests A-J. Spraying a 200 ppm test suspension to the point of run-off on the test plants was the equivalent of a rate of 500 g/ha. […] The test suspension was sprayed to the point of run-off on wheat seedlings. The following day the seedlings were inoculated with a spore suspension of Septoria tritici (the causal agent of wheat leaf blotch) and incubated in saturated atmosphere at 24° C. for 48 h, and then moved to a growth chamber at 20° C. for 19 days, after which time visual disease ratings were made. […] A dash (-) indicates no test results. All results are for 200 ppm except where followed by “*”, which indicates 40 ppm.

Septoria nodorum = assay: Test F: wheat glume blotch on wheat seedlings, sprayed the day before inoculation, visual disease rating; details: 100 = 100% disease control; for pest or weed control at 200 ppm: Parastagonospora nodorum, 264 h
Excerpt: as §1

[3] = 200 ppm, 0 = no control relative to controls
[4] = 40 ppm (marked *), 0 = no control

In the case of Fc1cc(-n2c(Cl)nc(Cl)c2-c2ccncc2F)ccc1Cl [compound 455], the “Test C disease control rating” value (Botrytis cinerea; [3]) is reported as 99%, the “Test I disease control rating” value [1, 3] is reported as 99% and the “Test J disease control rating” value [2, 3] is reported as 68%. The “Test D disease control rating” value (Alternaria solani; [3]) was 95%, the “Test G disease control rating” value (Septoria tritici; [3]) was 95% and the “Test F disease control rating” value (Septoria nodorum; [3]) was 0%.

In the case of Fc1cccc(F)c1-n1c(Br)nc(Cl)c1-c1ccc(Cl)cc1 [compound 164], the “Test C disease control rating” value (Botrytis cinerea; [4]) is reported as 91* %, the “Test I disease control rating” value [1, 4] is reported as 19* % and the “Test J disease control rating” value [2, 4] is reported as 94* %. The “Test D disease control rating” value (Alternaria solani; [4]) was 88* %, the “Test G disease control rating” value (Septoria tritici; [4]) was 96* % and the “Test F disease control rating” value (Septoria nodorum; [4]) was 0* %.

Fc1cc(F)c(-n2c(Br)nc(Br)c2-c2ccc(Cl)cc2)c(F)c1 [compound 218] was tested, and the “Test C disease control rating” value (Botrytis cinerea; [4]) was 99* %, the “Test I disease control rating” value [1, 4] was 80* % and the “Test J disease control rating” value [2, 4] was 73* %. For the same compound, the “Test D disease control rating” value (Alternaria solani; [4]) was 99* %, the “Test G disease control rating” value (Septoria tritici; [4]) was 91* % and the “Test F disease control rating” value (Septoria nodorum; [4]) was 0* %.

In the case of Fc1cccc(F)c1-c1c(Cl)nc(Br)n1-c1ccc(C(F)(F)F)cc1 [compound 84], the “Test C disease control rating” value (Botrytis cinerea; [3]) is reported as 0%, the “Test I disease control rating” value [1, 3] is reported as 91% and the “Test J disease control rating” value [2, 3] is reported as 99%. The “Test D disease control rating” value (Alternaria solani; [3]) was 99%, the “Test G disease control rating” value (Septoria tritici; [3]) was 88% and the “Test F disease control rating” value (Septoria nodorum; [3]) was 0%.

For Cc1nc(Cl)c(-c2c(F)cc(F)cc2F)n1-c1ccc(F)cc1 [compound 167], the “Test C disease control rating” value (Botrytis cinerea; [4]) was 99* %, the “Test I disease control rating” value [1, 4] was 0* % and the “Test J disease control rating” value [2, 4] was 98* %. For the same compound, the “Test D disease control rating” value (Alternaria solani; [4]) was 100* %, the “Test G disease control rating” value (Septoria tritici; [4]) was 95* % and the “Test F disease control rating” value (Septoria nodorum; [4]) was 0* %.

For N#Cc1nc(Cl)c(-c2c(F)ccc(F)c2F)n1-c1ccc(Cl)cc1 [Compound 57, 4-chloro-1-(4-chlorophenyl)-5-(2,3,6-trifluorophenyl)-1H-imidazole-2-carbonitrile], the pest or weed control at 200 ppm (Botrytis cinerea; [3]) was 84%, the pest or weed control at 200 ppm [1, 3] was 96% and the pest or weed control at 200 ppm [2, 3] was 100%. It also gave a pest or weed control at 200 ppm (Alternaria solani; [3]) of 99%, a pest or weed control at 200 ppm (Septoria tritici; [3]) of 87% and a pest or weed control at 200 ppm (Septoria nodorum; [3]) of 0%.

Fc1cc(F)cc(-n2c(Br)nc(Cl)c2-c2c(F)cccc2F)c1 [compound 54] was tested, and the “Test C disease control rating” value (Botrytis cinerea; [3]) was 92%, the “Test I disease control rating” value [1, 3] was 99% and the “Test J disease control rating” value [2, 3] was 91%. For the same compound, the “Test D disease control rating” value (Alternaria solani; [3]) was 24%, the “Test G disease control rating” value (Septoria tritici; [3]) was 87% and the “Test F disease control rating” value (Septoria nodorum; [3]) was 0%.

For Cc1nc(Cl)c(-c2c(F)ccc(F)c2F)n1-c1ccc(Cl)c(F)c1 [compound 157], the “Test C disease control rating” value (Botrytis cinerea; 200 ppm, 0 = no control) was 97%, the “Test I disease control rating” value ([1]; 200 ppm, 0 = no control) was 100% and the “Test J disease control rating” value ([2]; 200 ppm, 0 = no control) was 100%. For the same compound, the “Test D disease control rating” value (Alternaria solani; 200 ppm, 0 = no control) was 99%, the “Test G disease control rating” value (Septoria tritici; 200 ppm, 0 = no control) was 97% and the “Test F disease control rating” value (Septoria nodorum; 200 ppm, 0 = no control) was 98%.

With COc1cc(F)c(-c2c(Cl)ncn2-c2ccc(C)cc2)c(F)c1 [compound 138] the “Test C disease control rating” value (Botrytis cinerea; [3]) was 98%, the “Test I disease control rating” value [1, 3] was 100% and the “Test J disease control rating” value [2, 3] was 100%. The “Test D disease control rating” value (Alternaria solani; [3]) was 100%, the “Test G disease control rating” value (Septoria tritici; [3]) was 99% and the “Test F disease control rating” value (Septoria nodorum; [3]) was 92%.

Cc1ccc(-n2c(Br)nc(Cl)c2-c2c(F)cccc2F)cc1F [compound 170] was tested, and the “Test C disease control rating” value (Botrytis cinerea; 200 ppm, 0 = no control) was 97%, the “Test I disease control rating” value ([1]; 200 ppm, 0 = no control) was 99% and the “Test J disease control rating” value ([2]; 200 ppm, 0 = no control) was 99%. The “Test D disease control rating” value (Alternaria solani; 200 ppm, 0 = no control) was 98%, the “Test G disease control rating” value (Septoria tritici; 200 ppm, 0 = no control) was 95% and the “Test F disease control rating” value (Septoria nodorum; 200 ppm, 0 = no control) was 0%.

Compound COc1ccc(F)c(-c2c(Br)ncn2-c2ccc(F)cc2)c1F [Compound 450, 4-bromo-5-(2,6-difluoro-3-methoxyphenyl)-1-(4-fluorophenyl)-1H-imidazole] has a pest or weed control at 200 ppm (Botrytis cinerea; [3]) of 97%, a pest or weed control at 200 ppm [1, 3] of 100% and a pest or weed control at 200 ppm [2, 3] of 100%. It also gave a pest or weed control at 200 ppm (Alternaria solani; [3]) of 100%, a pest or weed control at 200 ppm (Septoria tritici; [3]) of 97% and a pest or weed control at 200 ppm (Septoria nodorum; [3]) of 99%.
